Results reported in patent US7563788B2, “Substituted Imidazo[1,2-a]pyridines as Antibacterial Agents” (Pfizer Inc., priority 2004, dated 2009).
In brackets after ≈: the same amount, converted by molar mass.

Legend:
[1] = system: Neisseria gonorrhoeae, GC525 (NG-2888); test: In-vitro antibacterial activity, microbroth dilution MIC susceptibility testing; type: cell-based; conditions: gonococcal broth, 20-24 hours at 35° C., lowest concentration preventing visible growth
Protocol: The in-vitro antibacterial activity of selected compounds was determined against a stain of Neisseria gonorrhoeae, GC525 (NG-2888), which is described by Rouquette-Loughlin et al, in Journal of Bacteriology, February 2003, p. 1101-1106, at p. 1103. In general, minimum inhibitory concentration (MIC) susceptibility testing followed procedures recommended by the National Committee for Clinical Laboratory Standards (NCCLS^1-2) or followed the descriptions described below:
Neisseria gonorrhoeae strains were grown on Chocolate Agar II plates (BBL—Becton Dickinson Microbiology Systems, Cockeysville, Md.) and incubated at 35° C. in a humidified 5% CO2 incubator (Forma Scientific, Marietta Ohio). For microbroth dilution MIC testing, N. gonorrhoeae were tested in gonococcal broth (GCB):
Bacterial culture identifications were confirmed by standard microbiological methods.^4 N. gonorrhoeae strains were streaked onto appropriate agar plates for visualization of purity and expected colony morphology. Gram stains were also utilized.
Bacterial stock cultures are stored as frozen suspensions at −70° C. N. gonorrhoeae cultures are suspended in inactivated Horse Serum (Colorado Serum Company, Denver, Colo.) containing 7.5% glucose prior to snap freezing in a dry ice/ethanol bath.
Frozen stock cultures were used as the initial source of organisms for performing microbroth dilution MIC testing. Stock cultures were passed on their respective growth medium at least one growth cycle (18-24 hours) prior to their use. Bacterial culture suspensions were prepared directly from Chocolate Agar II plates into 10 mL cation-adjusted Mueller-Hinton Broth (CAMHB, BBL, # BB215069). Before use, cultures were adjusted to an optical density value of […] on a Perkin-Elmer Lambda EZ150 Spectrophotometer (Wellesley, Mass.) set at a wavelength of 600 nm. Random cultures were plated for validation of actual colony counts. The adjusted cultures were diluted 400-fold (0.25 mL inoculum+100 mL GCB) into gonococcal broth producing a starting inoculum of approximately 5×10^5 cfu/mL. These cultures were inoculated into test plates (100 uL/well) using a Biomek® FX workstation (Beckman Coulter Inc., Fullerton, Calif.). The inoculated plates were placed in stacks of no more than 4 and covered with an empty plate. Plates were incubated for 20-24 hours at 35° C. in a humidified CO2 incubator.
Drug stock solutions (2 mg/mL in DMSO) were prepared on the day of testing. Drugs were weight corrected for assay content where necessary.
Microbroth dilution stock plates were prepared in two dilution series, 64-0.06 ug drug/mL and 1-0.001 ug drug/mL. For the high concentration series, 200 uL of stock solution (2 mg/mL) was added to duplicate rows of a 96-well plate. This was used as the first well in the dilution series. Serial two-fold decremental dilutions were made using a BioMek FX robot (Beckman Coulter Inc., Fullerton, Calif.) with 10 of the remaining 11 wells, each of which contained 100 uL of the appropriate solvent/diluent. Row 12 contained solvent/diluent only and served as the control. For tube one of the low concentration series, 200 uL of a 31.25 ug/mL stock was added to duplicate rows of a 96-well plate. Serial two-fold dilutions were made as described above.
Daughter plates were spotted (3.2 uL/well) from the stock plates listed above using the BioMek FX robot and were inoculated with organism (100 uL/well) as described previously.
After incubation, the degree of growth in each well was read visually with the aid of a Test Reading Mirror (Dynatech Lab 220-16, Dynex Technologies, Chantilly, Va.). 96-well test plates are read in a darkened room with a single light shining from above. The MIC is the lowest concentration of drug that prevents macroscopically visible growth under the conditions of the test. Each drug dilution series was tested in duplicate; identical results are not always obtained. If MIC values in duplicate tests differ by 1 well (two-fold), the […] value is reported. […]

Question: Which results are given for `CCOC(=O)Nc1cn2ccc(-c3cnc(N(C)C)nc3)cc2n1` [Example 2A, [7-(2-Dimethylamino-pyrimidin-5-yl)-imidazo[1,2-a]pyridin-2-yl]-carbamic Acid Ethyl Ester]?
Answer: melting point: 270 to 280 °C (dec.); MIC [1]: > 64 µg/mL

Question: With `CCNC(=O)Nc1cn2ccc(-c3cnc(N(C)C)nc3)cc2n1` [Example 2B, 1-[7-(2-Dimethylamino-pyrimidin-5-yl)-imidazo[1,2-a]pyridin-2-yl]-3-ethyl-urea] as the compound, how does the melting point read?
Answer: Its melting point is 259 to 263 °C (dec.).

Question: What about the MIC [1] of the same compound?
Answer: Its MIC is 16 µg/mL (≈ 49.2 µM).

Question: For `CCOC(=O)Nc1cn2ccc(-c3ccc(OC)nc3)cc2n1` [Example 3A, [7-(6-Methoxy-pyridin-3-yl)-imidazo[1,2-a]pyridin-2-yl]-carbamic Acid Ethyl Ester], which melting point is on record?
Answer: The melting point was 273 to 279 °C (dec.).

Question: And the MIC [1]?
Answer: The MIC was greater than 64 µg/mL.

Question: Which melting point does the source give for `CCNC(=O)Nc1cn2ccc(-c3ccc(OC)nc3)cc2n1` [Example 3B, 1-Ethyl-3-[7-(6-methoxy-pyridin-3-yl)-imidazo[1,2-a]pyridin-2-yl]-urea] here?
Answer: The melting point was 222 to 225 °C (dec.).

Question: What about the MIC [1] of the same compound?
Answer: The MIC was 16 µg/mL (≈ 51.4 µM).

Question: For `CCNC(=O)Nc1cn2ccc(-c3cnc(OC)nc3)cc2n1` [Example 4, 1-Ethyl-3-[7-(2-methoxy-pyrimidin-5-yl)-imidazo[1,2-a]pyridin-2-yl]-urea], which melting point is on record?
Answer: The melting point was greater than 300 °C.

Question: What about the MIC [1] of the same compound?
Answer: Its MIC is 12.7 µg/mL (≈ 40.7 µM).

Question: For `CCNC(=O)Nc1cn2ccc(-c3ccn[nH]3)cc2n1` [Example 38, 1-Ethyl-3-[7-(2H-pyrazol-3-yl)-imidazo[1,2-a]pyridin-2-yl]-urea], which melting point is on record?
Answer: Its melting point is 292 to 295 °C (dec.).

Question: And the MIC [1]?
Answer: Its MIC is 32 µg/mL (≈ 118 µM).

Question: For `CCNC(=O)Nc1cn2ccc(-c3noc(=O)[nH]3)cc2n1` [Example 41, 1-Ethyl-3-[7-(5-oxo-4,5-dihydro-[1,2,4]oxadiazol-3-yl)-imidazo[1,2-a]pyridin-2-yl]-urea], which MIC [1] is on record?
Answer: Its MIC is greater than 64 µg/mL.

Question: With `CCNC(=O)Nc1cn2ccc(-c3ccnc(N)c3)cc2n1` [Example 42, 1-[7-(2-Amino-pyridin-4-yl)-imidazo[1,2-a]pyridin-2-yl]-3-ethyl-urea] as the compound, how does the MIC [1] read?
Answer: The MIC was 64 µg/mL (≈ 216 µM).

Question: For `CCNC(=O)Nc1cn2ccc(C(=O)N3CCOCC3)cc2n1` [Example 43, 1-Ethyl-3-[7-(morpholine-4-carbonyl)-imidazo[1,2-a]pyridin-2-yl]-urea], which MIC [1] is on record?
Answer: Its MIC is greater than 64 µg/mL.

Question: With `CCNC(=O)Nc1cn2ccc(-c3ccnc(OC)c3)cc2n1` [Example 44, 1-Ethyl-3-[7-(2-methoxy-pyridin-4-yl)-imidazo[1,2-a]pyridin-2-yl]-urea] as the compound, how does the MIC [1] read?
Answer: The MIC was 16 µg/mL (≈ 51.4 µM).

Question: For `CCNC(=O)Nc1cn2c(-c3nc(C)no3)cc(-c3cccnc3)cc2n1` [Example 45, 1-Ethyl-3-[5-(3-methyl-[1,2,4]oxadiazol-5-yl)-7-pyridin-3-yl-imidazo[1,2-a]pyridin-2-yl]-urea], which MIC [1] is on record?
Answer: The MIC was 0.25 µg/mL (≈ 0.688 µM).

Question: Which MIC [1] does the source give for `CCNC(=O)Nc1cn2ccc(-c3ccc(F)nc3)cc2n1` [Example 46, 1-Ethyl-3-[7-(6-fluoro-pyridin-3-yl)-imidazo[1,2-a]pyridin-2-yl]-urea] here?
Answer: The MIC was 16 µg/mL (≈ 53.5 µM).

Question: Which MIC [1] does the source give for `CCNC(=O)Nc1cn2c(C(=O)NCC)cc(-c3cnc(N(C)C)nc3)cc2n1` [Example 50, 7-(2-Dimethylamino-pyrimidin-5-yl)-2-(3-ethyl-ureido)-imidazo[1,2-a]pyridine-5-carboxylic Acid Ethylamide] here?
Answer: Its MIC is 2 µg/mL (≈ 5.04 µM).

Question: With `CCNC(=O)Nc1cn2c(-c3ncccn3)cc(-c3cnc(N(C)C)nc3)cc2n1` [Example 51, 1-[7-(2-Dimethylamino-pyrimidin-5-yl)-5-pyrimidin-2-yl-imidazo[1,2-a]pyridin-2-yl]-3-ethyl-urea] as the compound, how does the MIC [1] read?
Answer: The MIC was 0.13 µg/mL (≈ 0.322 µM).
